The record followed here is ChEMBL document CHEMBL4190253, “Synthesis of novel 5-(aroylhydrazinocarbonyl)escitalopram as cholinesterase inhibitors” (Eur J Med Chem, 2017).

The target in assay [1] is Acetylcholinesterase (Electrophorus electricus) (UniProt O42275). The experiment in a line: Inhibition of electric eel AChE at 0.5 mM using acetylthiocholine iodide as substrate preincubated for 10 mins followed by substrate addition measured after 30 mins by Ellman's method relative to control.
Assay [2] can be described thus: Selectivity ratio of IC50 for electric eel AChE to IC50 for equine serum BCHE.
In assay [3] the target is Cholinesterase (Equus caballus) (UniProt P81908). The experiment in a line: Inhibition of equine serum BCHE at 0.5 mM using butyrylthiocholine iodide as substrate preincubated for 10 mins followed by substrate addition measured after 30 mins by Ellman's method relative to control.
Cholinesterase (Equus caballus), sequence (P81908 whole entry): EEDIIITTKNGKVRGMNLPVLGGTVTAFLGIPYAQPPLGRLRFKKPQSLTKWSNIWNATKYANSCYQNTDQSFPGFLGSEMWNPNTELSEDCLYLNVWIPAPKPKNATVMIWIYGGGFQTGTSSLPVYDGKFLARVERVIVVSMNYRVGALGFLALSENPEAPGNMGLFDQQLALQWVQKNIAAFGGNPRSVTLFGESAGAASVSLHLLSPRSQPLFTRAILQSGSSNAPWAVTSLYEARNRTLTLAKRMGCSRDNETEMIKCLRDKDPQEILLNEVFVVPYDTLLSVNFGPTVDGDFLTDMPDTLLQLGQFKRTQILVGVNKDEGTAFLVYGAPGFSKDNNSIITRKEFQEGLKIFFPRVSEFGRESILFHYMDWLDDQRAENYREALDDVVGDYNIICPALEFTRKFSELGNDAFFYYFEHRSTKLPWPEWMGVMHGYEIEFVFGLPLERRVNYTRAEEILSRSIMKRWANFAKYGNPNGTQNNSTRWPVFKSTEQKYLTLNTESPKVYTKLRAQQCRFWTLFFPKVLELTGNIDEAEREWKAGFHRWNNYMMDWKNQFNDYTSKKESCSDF
In assay [4] the target is Acetylcholinesterase (Electrophorus electricus, UniProt O42275). The experiment in a line: Inhibition of electric eel AChE using acetylthiocholine iodide as substrate preincubated for 10 mins followed by substrate addition measured after 30 mins by Ellman's method.
Acetylcholinesterase, sequence (O42275 whole entry): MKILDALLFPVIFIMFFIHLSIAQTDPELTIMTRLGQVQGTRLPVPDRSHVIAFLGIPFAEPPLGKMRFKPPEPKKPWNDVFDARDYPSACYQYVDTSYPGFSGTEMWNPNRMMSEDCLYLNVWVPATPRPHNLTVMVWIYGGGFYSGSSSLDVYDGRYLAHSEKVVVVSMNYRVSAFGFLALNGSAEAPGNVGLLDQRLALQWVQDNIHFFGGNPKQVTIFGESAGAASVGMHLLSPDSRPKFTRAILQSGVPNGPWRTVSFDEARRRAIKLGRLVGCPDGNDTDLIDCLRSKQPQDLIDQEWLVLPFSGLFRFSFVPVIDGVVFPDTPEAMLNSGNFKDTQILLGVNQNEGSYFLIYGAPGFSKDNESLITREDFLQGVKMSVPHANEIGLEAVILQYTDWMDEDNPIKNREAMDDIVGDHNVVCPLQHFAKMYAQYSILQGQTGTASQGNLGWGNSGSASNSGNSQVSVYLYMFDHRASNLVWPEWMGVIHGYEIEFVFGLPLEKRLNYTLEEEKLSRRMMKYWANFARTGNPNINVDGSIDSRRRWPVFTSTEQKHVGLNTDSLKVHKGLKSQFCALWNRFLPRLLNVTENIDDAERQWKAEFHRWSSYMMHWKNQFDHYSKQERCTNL
Assay [5] concerns the target Cholinesterase (Equus caballus, UniProt P81908). The experiment in a line: Inhibition of equine serum BCHE using butyrylthiocholine iodide as substrate preincubated for 10 mins followed by substrate addition measured after 30 mins by Ellman's method.

Each structure is given as a SMILES string.

Cholinesterase, sequence (P81908 whole entry): as the sequence (P81908 whole entry) above
Acetylcholinesterase (Electrophorus electricus), sequence (O42275 24-633 limits assumed): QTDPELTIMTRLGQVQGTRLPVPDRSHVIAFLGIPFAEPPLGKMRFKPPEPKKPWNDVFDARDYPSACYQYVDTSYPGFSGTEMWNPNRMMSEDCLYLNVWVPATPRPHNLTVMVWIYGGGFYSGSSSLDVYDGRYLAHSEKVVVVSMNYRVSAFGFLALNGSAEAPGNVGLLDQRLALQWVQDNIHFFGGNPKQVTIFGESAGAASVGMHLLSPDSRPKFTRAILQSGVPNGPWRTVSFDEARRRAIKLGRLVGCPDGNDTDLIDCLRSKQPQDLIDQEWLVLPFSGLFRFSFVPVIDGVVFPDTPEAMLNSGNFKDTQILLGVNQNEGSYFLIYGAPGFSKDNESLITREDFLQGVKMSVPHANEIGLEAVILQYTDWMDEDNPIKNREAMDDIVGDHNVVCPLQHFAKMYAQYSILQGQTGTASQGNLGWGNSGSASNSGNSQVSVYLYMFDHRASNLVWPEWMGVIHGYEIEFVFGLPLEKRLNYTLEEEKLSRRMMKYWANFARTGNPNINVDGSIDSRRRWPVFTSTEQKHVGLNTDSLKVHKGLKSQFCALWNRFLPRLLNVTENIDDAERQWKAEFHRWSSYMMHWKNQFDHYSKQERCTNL

As to `CN(C)CCCC1(c2ccc(F)cc2)OCc2cc(C(=O)NNC(=O)c3ccc(I)cc3)ccc21` (stereo unspecified), the inhibition was determined as 76.4% in assay [1] and 85.5% in assay [3]. In addition, the Ratio IC50 in assay [2] amounted to 35.7. For the same compound, the 50% inhibitory concentration (IC50) amounted to 210 µM in assay [4] and 5.88 µM in assay [5].

For the compound `CN(C)CCCC1(c2ccc(F)cc2)OCc2cc(C(=O)NNC(=O)c3ccccc3I)ccc21` (stereo unspecified), the inhibition worked out at 81.8% in assay [1] and 82.6% in assay [3]. The Ratio IC50 in assay [2] amounted to 1.87. Moreover, the figures for the IC50 in assay [4] and in assay [5] were 146 µM and 77.9 µM, respectively.

As for `CN(C)CCCC1(c2ccc(F)cc2)OCc2cc(C(=O)NNC(=O)c3ccccc3Cl)ccc21` (stereo unspecified), the values for the inhibition in assay [1] and in assay [3] were 81.4% and 85.4%, respectively. In assay [2], the Ratio IC50 worked out at 1.67. Besides, the IC50 stood at 116 µM in assay [4] and 69.3 µM in assay [5].

With `CN(C)CCCC1(c2ccc(F)cc2)OCc2cc(C(=O)NNC(=O)c3ccc(O)cc3)ccc21` (stereo unspecified), the figures for the inhibition in assay [1] and in assay [3] were 84.6% and 73.2%, respectively. Also, the Ratio IC50 in assay [2] amounted to 0.61. The IC50 in assay [4] turned out to be 117 µM; in assay [5], 192 µM.

`CN(C)CCCC1(c2ccc(F)cc2)OCc2cc(C(=O)NNC(=O)c3ccccc3Br)ccc21` (stereo unspecified): the results for the inhibition in assay [1] and in assay [3] were 85.2% and 84.1%, respectively. The Ratio IC50 in assay [2] was found to be 3.7. The half-maximal inhibitory concentration (IC50) in assay [4] worked out at 7.81 µM; in assay [5], 2.11 µM.

Turning to `CN(C)CCCC1(c2ccc(F)cc2)OCc2cc(C(=O)NNC(=O)c3cccc([N+](=O)[O-])c3)ccc21` (stereo unspecified), the inhibition in assay [1] was 79.3%; in assay [3], 73.3%. The Ratio IC50 in assay [2] worked out at 0.74. Also, the IC50 turned out to be 137 µM in assay [4] and 185 µM in assay [5].

Consider `CN(C)CCCC1(c2ccc(F)cc2)OCc2cc(C(=O)NNC(=O)c3cccc(Cl)c3)ccc21` (stereo unspecified), for which the inhibition is 93.5% in assay [1] and 84% in assay [3]. Also, the Ratio IC50 in assay [2] is 0.46. Besides, the values for the half-inhibitory concentration (IC50) in assay [4] and in assay [5] were 1.8 µM and 3.9 µM, respectively.

With `CN(C)CCCC1(c2ccc(F)cc2)OCc2cc(C(=O)NNC(=O)c3cccc(Br)c3)ccc21` (stereo unspecified), the inhibition in assay [1] amounted to 80.1%; in assay [3], 88.8%. In addition, the Ratio IC50 in assay [2] was 0.88. Besides, the half-inhibitory concentration (IC50) in assay [4] turned out to be 115 µM; in assay [5] it was 130 µM.

As to `CN(C)CCCC1(c2ccc(F)cc2)OCc2cc(C(=O)NNC(=O)c3ccc(Br)cc3)ccc21` (stereo unspecified), the values for the inhibition in assay [1] and in assay [3] were 78.3% and 76.2%, respectively. Further, the Ratio IC50 in assay [2] turned out to be 0.62. In addition, the IC50 came to 118 µM in assay [4] and 190 µM in assay [5].

On to `CN(C)CCCC1(c2ccc(F)cc2)OCc2cc(C(=O)NNC(=O)c3ccccc3F)ccc21` (stereo unspecified), for which the inhibition was 84.4% in assay [1] and 85.5% in assay [3]. The Ratio IC50 in assay [2] came out at 1.55. In addition, the IC50 in assay [4] came out at 111 µM; in assay [5], 71.4 µM.

On to `CN(C)CCCC1(c2ccc(F)cc2)OCc2cc(C(=O)NNC(=O)c3cccc(I)c3)ccc21` (stereo unspecified), for which the inhibition in assay [1] is 83.7%; in assay [3], 85.4%. Moreover, in assay [2], the Ratio IC50 amounted to 1.81. Moreover, the IC50 came to 127 µM in assay [4] and 70.2 µM in assay [5].

Turning to `Cc1ccccc1C(=O)NNC(=O)c1ccc2c(c1)COC2(CCCN(C)C)c1ccc(F)cc1` (stereo unspecified), the inhibition in assay [1] came out at 83.4%; in assay [3] it was 72.4%. Further, the Ratio IC50 in assay [2] is 0.49. Further, the IC50 in assay [4] is 115 µM; in assay [5], 233 µM.

For the compound `Cc1ccc(C(=O)NNC(=O)c2ccc3c(c2)COC3(CCCN(C)C)c2ccc(F)cc2)cc1` (stereo unspecified), the inhibition in assay [1] was found to be 69.7%; in assay [3] it was 76.6%. Also, the Ratio IC50 in assay [2] is 1.69. Further, the half-inhibitory concentration (IC50) came to 268 µM in assay [4] and 158 µM in assay [5].

For the compound `CN(C)CCCC1(c2ccc(F)cc2)OCc2cc(C(=O)NNC(=O)c3ccc(N)cc3)ccc21` (stereo unspecified), the values for the inhibition in assay [1] and in assay [3] were 83.2% and 85.5%, respectively. In addition, the Ratio IC50 in assay [2] worked out at 21.6. In addition, the IC50 was determined as 129 µM in assay [4] and 5.98 µM in assay [5].

Take `COc1cc(C(=O)NNC(=O)c2ccc3c(c2)COC3(CCCN(C)C)c2ccc(F)cc2)ccc1O` (stereo unspecified): the inhibition in assay [1] amounted to 81.3%; in assay [3] it was 84.1%. For the same compound, the Ratio IC50 in assay [2] was 1.45. Besides, the IC50 was 112 µM in assay [4] and 76.9 µM in assay [5].

On to `CNC(=O)Oc1ccc2c(c1)[C@]1(C)CCN(C)[C@@H]1N2C`, for which the inhibition in assay [3] was found to be 82.8%.

Turning to `COc1ccc(C(=O)NNC(=O)c2ccc3c(c2)COC3(CCCN(C)C)c2ccc(F)cc2)cc1` (stereo unspecified), the inhibition in assay [1] came out at 76.4%; in assay [3] it was 72.2%. The Ratio IC50 in assay [2] stood at 0.63. Also, the IC50 in assay [4] worked out at 124 µM; in assay [5] it was 196 µM.

Regarding `CN(C)CCCC1(c2ccc(F)cc2)OCc2cc(C(=O)NNC(=O)c3ccccc3)ccc21` (stereo unspecified), the results for the inhibition in assay [1] and in assay [3] were 69.8% and 81.5%, respectively. The Ratio IC50 in assay [2] was found to be 3.53. Besides, the IC50 in assay [4] worked out at 268 µM; in assay [5] it was 75.8 µM.

Regarding `CN(C)CCCC1(c2ccc(F)cc2)OCc2cc(C(=O)NNC(=O)c3cccc(O)c3)ccc21` (stereo unspecified), the results for the inhibition in assay [1] and in assay [3] were 64.4% and 88.2%, respectively. The Ratio IC50 in assay [2] came to 1.52. Besides, the IC50 was determined as 197 µM in assay [4] and 129 µM in assay [5].

For the compound `CN(C)CCCC1(c2ccc(F)cc2)OCc2cc(C(=O)NNC(=O)c3ccccc3[N+](=O)[O-])ccc21` (stereo unspecified), the inhibition came to 70.3% in assay [1] and 84.1% in assay [3]. For the same compound, the Ratio IC50 in assay [2] came to 3.35. The concentration for half-maximal inhibition (IC50) is 256 µM in assay [4] and 76.3 µM in assay [5].

In the case of `COc1ccccc1C(=O)NNC(=O)c1ccc2c(c1)COC2(CCCN(C)C)c1ccc(F)cc1` (stereo unspecified), the inhibition in assay [1] worked out at 88.6%; in assay [3], 88.8%. For the same compound, the Ratio IC50 in assay [2] was 0.35. The IC50 was found to be 45.8 µM in assay [4] and 130 µM in assay [5].

As for `CN(C)CCCC1(c2ccc(F)cc2)OCc2cc(C(=O)NNC(=O)c3ccccc3O)ccc21` (stereo unspecified), the inhibition came to 59% in assay [1] and 85.7% in assay [3]. The Ratio IC50 in assay [2] turned out to be 3.32. For the same compound, the results for the IC50 in assay [4] and in assay [5] were 296 µM and 89 µM, respectively.

With `Cc1cccc(C(=O)NNC(=O)c2ccc3c(c2)COC3(CCCN(C)C)c2ccc(F)cc2)c1` (stereo unspecified), the inhibition in assay [1] stood at 82.6%; in assay [3] it was 85.7%. Moreover, the Ratio IC50 in assay [2] came to 1.32. In addition, the IC50 came to 117 µM in assay [4] and 88.7 µM in assay [5].

As to `CN(C)CCCC1(c2ccc(F)cc2)OCc2cc(C(=O)NNC(=O)c3cccc(F)c3)ccc21` (stereo unspecified), the results for the inhibition in assay [1] and in assay [3] were 77.1% and 73.3%, respectively. Also, the Ratio IC50 in assay [2] was found to be 0.76. The values for the concentration for half-maximal inhibition (IC50) in assay [4] and in assay [5] were 141 µM and 185 µM, respectively.

As to `CN(C)CCCC1(c2ccc(F)cc2)OCc2cc(C(=O)NNC(=O)c3ccc(F)cc3)ccc21` (stereo unspecified), the inhibition in assay [1] is 86.6%; in assay [3], 74.6%. The Ratio IC50 in assay [2] was found to be 0.63. For the same compound, the IC50 in assay [4] was 112 µM; in assay [5], 179 µM.

As for `CN(C)CCCC1(c2ccc(F)cc2)OCc2cc(C(=O)NNC(=O)c3ccc(Cl)cc3)ccc21` (stereo unspecified), the figures for the inhibition in assay [1] and in assay [3] were 86.1% and 78.4%, respectively. Further, the Ratio IC50 in assay [2] was found to be 0.04. The IC50 turned out to be 6.71 µM in assay [4] and 138 µM in assay [5].

With `CN(C)CCCC1(c2ccc(F)cc2)OCc2cc(C(=O)NNC(=O)c3ccccc3N)ccc21` (stereo unspecified), the inhibition in assay [1] worked out at 84.5%; in assay [3], 84.4%. The Ratio IC50 in assay [2] came to 1.72. The IC50 worked out at 118 µM in assay [4] and 68.2 µM in assay [5].

With `CN(C)CCCC1(c2ccc(F)cc2)OCc2cc(C(=O)NNC(=O)c3ccc([N+](=O)[O-])cc3)ccc21` (stereo unspecified), the inhibition was found to be 75.8% in assay [1] and 74.6% in assay [3]. For the same compound, in assay [2], the Ratio IC50 was found to be 0.74. For the same compound, the IC50 in assay [4] is 125 µM; in assay [5], 169 µM.
